Results taken from ChEMBL document CHEMBL3872232, “2-Azetidinones: Synthesis and biological evaluation as potential anti-breast cancer agents” (Eur J Med Chem, 2016).

Key:
[1] = Antiproliferative activity against human MDA-MB-231 cells after 48 hrs by MTT assay; type: functional, cell-based; settings: MDA-MB-231, 48 h
[2] = Antiproliferative activity against human mammary epithelial cells after 48 hrs by MTT assay; type: cell-based, Epithelial cell
[3] = Antiproliferative activity against human MCF7 cells after 48 hrs by MTT assay; type: functional, cell-based; settings: MCF7, 48 h
MDA-MB-231 [4] = test: Effect on p27 mRNA expression in human MDA-MB-231 cells assessed as ratio of p27 to GAPDH expression level at 5 uM after 24 hrs by RT-PCR method (reference value: 0.23); type: functional
MDA-MB-231 [5] = test: Effect on Bid gene expression in human MDA-MB-231 cells assessed as ratio of Bid to beta-actin expression level at 5 uM after 24 hrs by RT-PCR method (reference value: 0.17); type: functional
Homo sapiens [6] = species: Homo sapiens; test: Inhibition of Akt in human MDA-MB-231 cells assessed as ratio of phosphorylated GSK-3beta to GAPDH expression level at 2 uM after 48 hrs by immunoblot analysis (reference value: 0.14 to 1.50); type: cell-based
[7] = Cell cycle arrest in human MCF7 cells assessed as accumulation at sub-G1 phase at 5 uM after 24 hrs by propidium iodide staining based flow cytometry (reference value: 3.58%); type: functional
MCF7 [8] = test: Induction of apoptosis in human MCF7 cells assessed as early apoptotic cells at 5 uM after 24 hrs by Annexin V-FITC/propidium iodide staining based flow cytometry (reference value: 1.6%); type: functional
MDA-MB-231 [9] = test: Inhibition of Akt in human MDA-MB-231 cells assessed as reduction in GSK-3beta phosphorylation after 48 hrs by immunoblot analysis; type: cell-based
Homo sapiens [10] = species: Homo sapiens; test: Inhibition of Akt in human MDA-MB-231 cells assessed as ratio of phosphorylated Akt to GAPDH expression level at 10 uM after 48 hrs by immunoblot analysis (reference value: 0.33 to 0.81); type: cell-based
MDA-MB-231 [11] = test: Effect on p53 gene expression in human MDA-MB-231 cells assessed as ratio of p53 to beta-actin expression level at 5 uM after 24 hrs by RT-PCR method (reference value: 0.22); type: functional
[12] = Safety index, ratio of compound IC50 to colchicine IC50 for human mammary epithelial cells; type: ADME, cell-based, Epithelial cell; settings: read-out: Ratio IC50
[13] = Cell cycle arrest in human MCF7 cells assessed as accumulation at G2/M phase at 5 uM after 24 hrs by propidium iodide staining based flow cytometry (reference value: 9.29%); type: functional
MDA-MB-231 [14] = test: Effect on cyclin E mRNA expression in human MDA-MB-231 cells assessed as ratio of cyclin E to GAPDH expression level at 5 uM after 24 hrs by RT-PCR method (reference value: 0.13); type: functional
MDA-MB-231 [15] = test: Ratio of Bcl-2 to Bax gene expression in human MDA-MB-231 cells at 5 uM after 24 hrs by RT-PCR method (reference value: 0.03); type: functional
MDA-MB-231 [16] = test: Induction of apoptosis in human MDA-MB-231 cells assessed as necrotic cells at 5 uM after 24 hrs by Annexin V-FITC/propidium iodide staining based flow cytometry (reference value: 1.3%); type: functional
MDA-MB-231 [17] = test: Effect on cyclin D1 mRNA expression in human MDA-MB-231 cells assessed as ratio of cyclin D1 to GAPDH expression level at 5 uM after 24 hrs by RT-PCR method (reference value: 0.71); type: functional
[18] = Cell cycle arrest in human MCF7 cells assessed as accumulation at S phase at 5 uM after 24 hrs by propidium iodide staining based flow cytometry (reference value: 4.23%); type: functional
Homo sapiens [19] = species: Homo sapiens; test: Inhibition of Akt in human MDA-MB-231 cells assessed as ratio of phosphorylated GSK-3beta to GAPDH expression level at 5 uM after 48 hrs by immunoblot analysis (reference value: 0.14 to 1.50); type: cell-based
MCF7 [20] = test: Induction of apoptosis in human MCF7 cells assessed as late apoptotic cells at 5 uM after 24 hrs by Annexin V-FITC/propidium iodide staining based flow cytometry (reference value: 2.3%); type: functional
MDA-MB-231 [21] = test: Effect on p21 mRNA expression in human MDA-MB-231 cells assessed as ratio of p21 to GAPDH expression level at 5 uM after 24 hrs by RT-PCR method (reference value: 0.02); type: functional
MCF7 [22] = test: Induction of apoptosis in human MCF7 cells assessed as necrotic cells at 5 uM after 24 hrs by Annexin V-FITC/propidium iodide staining based flow cytometry (reference value: 3.7%); type: functional
Homo sapiens [23] = species: Homo sapiens; test: Inhibition of Akt in human MDA-MB-231 cells assessed as ratio of phosphorylated GSK-3beta to GAPDH expression level at 10 uM after 48 hrs by immunoblot analysis (reference value: 0.14 to 1.50); type: cell-based
MDA-MB-231 [24] = test: Effect on Cdk6 mRNA expression in human MDA-MB-231 cells assessed as ratio of Cdk6 to GAPDH expression level at 5 uM after 24 hrs by RT-PCR method (reference value: 1.37); type: functional
[25] = Cell cycle arrest in human MCF7 cells assessed as accumulation at G0/G1 phase at 5 uM after 24 hrs by propidium iodide staining based flow cytometry (reference value: 83.25%); type: functional
Homo sapiens [26] = species: Homo sapiens; test: Inhibition of Akt in human MDA-MB-231 cells assessed as ratio of phosphorylated Akt to GAPDH expression level at 2 uM after 48 hrs by immunoblot analysis (reference value: 0.33 to 0.81); type: cell-based
MDA-MB-231 [27] = test: Inhibition of Akt in human MDA-MB-231 cells after 48 hrs by ELISA; type: cell-based
MDA-MB-231 [28] = test: Effect on Cdk2 mRNA expression in human MDA-MB-231 cells assessed as ratio of Cdk2 to GAPDH expression level at 5 uM after 24 hrs by RT-PCR method (reference value: 0.26); type: functional
MDA-MB-231 [29] = test: Induction of apoptosis in human MDA-MB-231 cells assessed as early apoptotic cells at 5 uM after 24 hrs by Annexin V-FITC/propidium iodide staining based flow cytometry (reference value: 0.5%); type: functional
Homo sapiens [30] = species: Homo sapiens; test: Inhibition of Akt in human MDA-MB-231 cells assessed as ratio of phosphorylated Akt to GAPDH expression level at 5 uM after 48 hrs by immunoblot analysis (reference value: 0.33 to 0.81); type: cell-based
MDA-MB-231 [31] = test: Induction of apoptosis in human MDA-MB-231 cells assessed as late apoptotic cells at 5 uM after 24 hrs by Annexin V-FITC/propidium iodide staining based flow cytometry (reference value: 1.8%); type: functional
MDA-MB-231 [32] = test: Inhibition of Akt phosphorylation in human MDA-MB-231 cells after 48 hrs by immunoblot analysis; type: cell-based
[33] = Homo sapiens, Epithelial cell, 48 h, read-out: IC50

COC(=O)/C(=C/c1ccccc1)CN1C(=O)[C@@H](OC)[C@H]1c1cccc(C(F)(F)F)c1
IC50 [1]: 18.2 µM | IC50 [2, 33]: 71.8 µM

CO[C@@H]1C(=O)N(C/C(C#N)=C/c2ccccc2)[C@@H]1c1cccc2ccccc12
IC50 [3]: 11.7 µM | IC50 ([2]; epithelial cell): Non-Toxic

COC(=O)/C(=C/c1ccccc1)CN1C(=O)[C@@H](OC)[C@H]1c1cccc(F)c1
IC50 [3]: 13.7 µM | IC50 [1]: 34.4 µM | IC50 [2, 33]: 38.5 µM

CO[C@@H]1C(=O)N(C/C(C#N)=C/c2ccccc2)[C@@H]1c1ccc(F)cc1
Ratio (MDA-MB-231 [4]): 0.33 | IC50 [3]: 8.31 µM | Ratio (MDA-MB-231 [5]): 0.39 | Ratio (Homo sapiens [6]): 0.42 | Activity [7]: 2.83% | Activity (MCF7 [8]): 1.7% | inhibition (MDA-MB-231 [9]): Dose-dependent effect | Ratio (Homo sapiens [10]): 0.58 | IC50 [1]: 9.24 µM | Ratio (MDA-MB-231 [11]): 0.21 | selectivity ratio [12]: 10 | Activity [13]: 9.68% | Ratio (MDA-MB-231 [14]): 0.2 | Ratio (MDA-MB-231 [15]): 0.03 | Activity (MDA-MB-231 [16]): 1.6% | Ratio (MDA-MB-231 [17]): 1.59 | Activity [18]: 5.15% | Ratio (Homo sapiens [19]): 0.22 | Activity (MCF7 [20]): 2.3% | Ratio (MDA-MB-231 [21]): 0.09 | Activity (MCF7 [22]): 6.9% | Ratio (Homo sapiens [23]): 0.2 | IC50 ([2]; epithelial cell): Non-Toxic | Ratio (MDA-MB-231 [24]): 1.3 | Activity [25]: 83.2% | Ratio (Homo sapiens [26]): 0.42 | inhibition (MDA-MB-231 [27]): Dose-dependent effect | Ratio (MDA-MB-231 [28]): 0.32 | Activity (MDA-MB-231 [29]): 1.1% | Ratio (Homo sapiens [30]): 0.45 | Activity (MDA-MB-231 [31]): 4.7%

COC(=O)/C(=C/c1ccccc1)CN1C(=O)[C@@H](OC)[C@H]1c1ccc(F)cc1
IC50 [3]: 15.6 µM | IC50 [1]: 21.8 µM | IC50 [2, 33]: 27.9 µM

CO[C@@H]1C(=O)N(C/C(C#N)=C/c2ccccc2)[C@@H]1c1ccc(C)cc1
Ratio (MDA-MB-231 [4]): 0.24 | IC50 [3]: 9.99 µM | Ratio (MDA-MB-231 [5]): 0.32 | Ratio (Homo sapiens [6]): 0.04 | Activity [7]: 2.22% | Activity (MCF7 [8]): 9% | Ratio (Homo sapiens [10]): 0.06 | IC50 [1]: 9.27 µM | Ratio (MDA-MB-231 [11]): 0.17 | selectivity ratio [12]: 10 | Activity [13]: 9.43% | Ratio (MDA-MB-231 [14]): 0.16 | Ratio (MDA-MB-231 [15]): 0.02 | Activity (MDA-MB-231 [16]): 1.4% | Ratio (MDA-MB-231 [17]): 0.64 | Activity [18]: 4.15% | Ratio (Homo sapiens [19]): 0.15 | Activity (MCF7 [20]): 12.8% | Ratio (MDA-MB-231 [21]): 0.08 | Activity (MCF7 [22]): 1.9% | Ratio (Homo sapiens [23]): 0.17 | IC50 ([2]; epithelial cell): Non-Toxic | Ratio (MDA-MB-231 [24]): 0.51 | Activity [25]: 83% | Ratio (Homo sapiens [26]): 0.35 | inhibition (MDA-MB-231 [27]): Dose-dependent effect | Ratio (MDA-MB-231 [28]): 0.22 | Activity (MDA-MB-231 [29]): 1.3% | Ratio (Homo sapiens [30]): 0.09 | Activity (MDA-MB-231 [31]): 4.1% | inhibition (MDA-MB-231 [32]): Dose-dependent effect

CCOC(=O)/C(=C/c1ccccc1)CN1C(=O)[C@@H](OC)[C@H]1c1cccc([N+](=O)[O-])c1
IC50 [3]: 19.9 µM | IC50 [1]: 14.4 µM | IC50 ([2]; epithelial cell): Non-Toxic

CO[C@@H]1C(=O)N(C/C(C#N)=C/c2ccccc2)[C@@H]1c1cccc(C)c1
IC50 [3]: 11.3 µM | IC50 [1]: 11.1 µM | IC50 ([2]; epithelial cell): Non-Toxic

CCOC(=O)/C(=C/c1ccccc1)CN1C(=O)[C@@H](OC)[C@H]1c1ccc(Cl)cc1
IC50 [3]: 12.7 µM | IC50 [1]: 11.1 µM | IC50 ([2]; epithelial cell): Non-Toxic

COC(=O)/C(=C/c1ccccc1)CN1C(=O)[C@@H](OC)[C@H]1c1ccccc1
IC50 [3]: 12.9 µM | IC50 [1]: 11.1 µM | IC50 ([2]; epithelial cell): Non-Toxic

CO[C@@H]1C(=O)N(C/C(C#N)=C/c2ccccc2)[C@@H]1c1ccc2c(c1)OCO2
IC50 [3]: 10.6 µM | IC50 [2, 33]: > 100 µM

CO[C@@H]1C(=O)N(C/C(C#N)=C/c2ccccc2)[C@@H]1c1ccc(Cl)cc1Cl
IC50 [3]: 31.9 µM | IC50 [1]: 17 µM | IC50 [2, 33]: > 100 µM
